{"source": "paper PMC5871776", "about": "“Opn5L1 is a retinal receptor that behaves as a reverse and self-regenerating photoreceptor” (Nature Communications, 2018)", "key": {"[1]": {"biological_target": "T1, Opn5L1 bearing native N- and C- termini (Gallus gallus, UniProt B3XZF4)", "T1 construct": "gene cOpn5L1; HEK293T, purified", "T1 sequence (B3XZF4 1-441)": "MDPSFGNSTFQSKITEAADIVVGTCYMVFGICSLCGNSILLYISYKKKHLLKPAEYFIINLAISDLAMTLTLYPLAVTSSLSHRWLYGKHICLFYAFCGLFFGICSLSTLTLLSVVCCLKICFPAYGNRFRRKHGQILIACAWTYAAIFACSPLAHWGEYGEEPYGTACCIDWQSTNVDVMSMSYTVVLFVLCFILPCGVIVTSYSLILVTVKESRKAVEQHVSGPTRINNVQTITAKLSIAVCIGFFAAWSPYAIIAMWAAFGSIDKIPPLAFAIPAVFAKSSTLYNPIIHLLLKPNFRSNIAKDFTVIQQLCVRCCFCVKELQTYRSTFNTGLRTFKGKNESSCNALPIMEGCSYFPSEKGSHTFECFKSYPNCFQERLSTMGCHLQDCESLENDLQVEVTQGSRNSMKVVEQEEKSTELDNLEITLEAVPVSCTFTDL", "test": "absorption spectrum of purified pigment and HPLC of extracted retinal", "type": "binding", "conditions": "covalent (retinylidene Schiff base)"}, "Opn5L1N": {"biological_target": "T2, Opn5L1N (Gallus gallus, UniProt B3XZF4)", "T2 construct": "gene cOpn5L1; HEK293T membranes", "T2 sequence (B3XZF4 20-441 limits assumed)": "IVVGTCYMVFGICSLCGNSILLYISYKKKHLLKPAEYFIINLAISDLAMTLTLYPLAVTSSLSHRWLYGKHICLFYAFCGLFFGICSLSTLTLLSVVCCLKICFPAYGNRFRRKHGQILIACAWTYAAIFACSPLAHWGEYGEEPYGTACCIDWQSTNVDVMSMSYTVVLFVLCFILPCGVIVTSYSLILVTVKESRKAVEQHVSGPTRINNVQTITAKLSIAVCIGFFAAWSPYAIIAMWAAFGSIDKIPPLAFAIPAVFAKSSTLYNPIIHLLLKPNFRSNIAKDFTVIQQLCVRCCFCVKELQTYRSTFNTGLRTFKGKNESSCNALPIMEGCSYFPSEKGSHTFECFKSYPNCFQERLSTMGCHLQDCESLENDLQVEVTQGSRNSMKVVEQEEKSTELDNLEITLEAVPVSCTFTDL", "test": "[…]GTPgammaS filter binding assay of Gi activation", "type": "biochemical", "conditions": "agonist; membrane fraction, 0.6 μM Gi, dark, pH 7.0, 25 °C; covalent (retinylidene Schiff base)"}, "Opn5L1NC [2]": {"biological_target": "T3, Opn5L1NC (Gallus gallus, UniProt B3XZF4)", "T3 construct": "gene cOpn5L1; HEK293T, purified in dodecyl maltoside", "T3 sequence (B3XZF4 20-310 limits assumed)": "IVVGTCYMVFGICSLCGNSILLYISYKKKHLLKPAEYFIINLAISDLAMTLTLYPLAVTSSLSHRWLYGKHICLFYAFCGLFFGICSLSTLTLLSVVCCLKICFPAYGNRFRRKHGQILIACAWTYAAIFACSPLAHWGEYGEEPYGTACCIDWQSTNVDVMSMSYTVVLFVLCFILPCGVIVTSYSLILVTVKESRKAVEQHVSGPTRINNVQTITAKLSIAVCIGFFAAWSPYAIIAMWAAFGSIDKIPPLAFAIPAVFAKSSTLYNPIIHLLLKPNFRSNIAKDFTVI", "test": "absorption spectrum of purified pigment and HPLC of extracted retinal", "type": "binding", "conditions": "covalent (retinylidene Schiff base); 10 μM retinal, 4 °C, 8 h, dark; pH 7.0"}, "[3]": {"biological_target": "T4, Opn5L1 bearing native N- and C- termini (Gallus gallus, UniProt B3XZF4, C170T)", "T4 construct": "gene cOpn5L1; HEK293T, purified", "T4 sequence (B3XZF4 1-441 C170T)": "T1 sequence (B3XZF4 1-441) with C170T", "test": "absorption spectrum of purified pigment and HPLC of extracted retinal", "type": "binding", "conditions": "covalent (retinylidene Schiff base)"}, "Opn5L1NC [4]": {"biological_target": "T5, Opn5L1NC (Gallus gallus, UniProt B3XZF4, C170T, form not given)", "T5 construct": "gene cOpn5L1; HEK293T, purified in dodecyl maltoside", "T5 sequence (B3XZF4 20-310 C170T limits assumed)": "T3 sequence (B3XZF4 20-310 limits assumed) with C151T", "test": "absorption spectrum of purified pigment and HPLC of extracted retinal", "type": "binding", "conditions": "covalent (retinylidene Schiff base); retinal 5 μM added to the cell culture; pH 7.0, 10 °C"}, "Opn5L1NC [5]": {"biological_target": "T6, Opn5L1NC (Gallus gallus, UniProt B3XZF4, E159K/Q174K, form not given)", "T6 construct": "gene cOpn5L1; HEK293T, purified in dodecyl maltoside", "T6 sequence (B3XZF4 20-310 E159K/Q174K limits assumed)": "T3 sequence (B3XZF4 20-310 limits assumed) with E140K, Q155K", "test": "LC-MS of tryptic peptide with retinal oxime at Cys188", "type": "binding", "conditions": "covalent (light-induced thio-adduct at Cys188); hydroxylamine, irradiation >500 nm"}}, "note": "Substitutions are numbered along the chain they refer to."}
{"smiles": "CC1=C(/C=C/C(C)=C/C=C/C(C)=C/C=O)C(C)(C)CCC1", "note": "[all-trans-retinal]", "values": [{"measurement": "absorption spectrum of purified pigment and HPLC of extracted retinal", "setting": "[1]", "value": "Opn5L1 bearing native N- and C- termini showed molecular characteristics indistinguishable"}, {"measurement": "EC50", "setting": "Opn5L1N", "value": 620, "unit": "nM"}, {"measurement": "absorption spectrum of purified pigment and HPLC of extracted retinal", "setting": "Opn5L1NC [2]", "value": "we concluded that Opn5L1NC directly incorporates all-trans-retinal and not 11-cis-retinal"}, {"measurement": "absorption spectrum of purified pigment and HPLC of extracted retinal", "setting": "[3]", "value": "verified the function of Cys188 in the mutant Opn5L1 bearing native N- and C- termini"}, {"measurement": "absorption spectrum of purified pigment and HPLC of extracted retinal", "setting": "Opn5L1NC [4]", "value": "the C188T mutant of Opn5L1NC showed an absorption maximum similar to that of WT"}, {"measurement": "LC-MS of tryptic peptide with retinal oxime at Cys188", "setting": "Opn5L1NC [5]", "value": "Light increased the amount of peptide with retinal oxime at the second cysteine"}]}
